Molecular target: T1, P2X7 receptor (Homo sapiens, UniProt Q99572)
T1 construct: host or cells: THP-1 monocytic cells differentiated overnight with LPS (25 ng/ml) and IFN-gamma (10 ng/ml)
T1 sequence (Q99572 1-595): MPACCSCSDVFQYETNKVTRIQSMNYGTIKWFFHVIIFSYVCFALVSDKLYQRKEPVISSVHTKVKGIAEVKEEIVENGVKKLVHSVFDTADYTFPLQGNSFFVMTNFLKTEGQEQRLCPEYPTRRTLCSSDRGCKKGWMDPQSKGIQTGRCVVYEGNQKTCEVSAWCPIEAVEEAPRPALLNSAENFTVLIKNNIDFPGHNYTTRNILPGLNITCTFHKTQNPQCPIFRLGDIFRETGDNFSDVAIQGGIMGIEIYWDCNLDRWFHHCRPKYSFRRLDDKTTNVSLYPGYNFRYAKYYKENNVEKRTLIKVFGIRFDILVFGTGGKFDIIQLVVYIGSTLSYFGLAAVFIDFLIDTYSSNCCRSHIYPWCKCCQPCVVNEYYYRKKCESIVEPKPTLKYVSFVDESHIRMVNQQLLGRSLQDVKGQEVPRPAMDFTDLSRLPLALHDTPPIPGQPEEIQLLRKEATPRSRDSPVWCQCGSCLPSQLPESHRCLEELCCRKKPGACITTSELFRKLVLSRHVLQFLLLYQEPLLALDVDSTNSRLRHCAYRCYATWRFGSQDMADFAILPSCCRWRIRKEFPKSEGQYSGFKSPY
Assay: P2X7 mediated pore formation (YO-PRO dye uptake, FLIPR)
Assay type: cell-based
Conditions: THP-1 cells
Excerpt: Tissue Culture: Cells of the THP-1 monocytic cell line (American Type Culture Collection, Rockville, Md.) were maintained in the log phase of growth in RPMI medium containing high glucose and 10% fetal calf serum (Invitrogen, Carlsbad, Calif.) according to established procedures (Humphrey B D and Dubyak G R (1996), Induction of the P2z/P2X7 Nucleotide Receptor and Associated Phospholipase D Activity by Lipopolysaccharide and IFN-γ in the Human THP-1 Monocytic Cell Line. J. Immunology 157:5627-37). Fresh vials of frozen THP-1 cells were initiated for growth every eight weeks. […]
P2X7 Mediated Pore Formation. […] Accordingly, the inhibitory activity of the antagonists of the present invention was determined by their capacity to inhibit the agonist-induced pore formation using the fluorescent dye YO-PRO (MW=629) and Fluorometric Imaging Plate Reader (FLIPR, Molecular Devices, Sunnydale, Calif.). […] The intensity of the fluorescence was captured by the CCD camera every 15 seconds for the first 10 minutes of agonist exposure followed by every 20 seconds for an additional 50 minutes with the data being digitally transferred to an interfaced PC. […] The test compounds were incubated for 10 minutes with the THP-1 cells at room temperature, after which the cells were stimulated with BzATP and fluorescence measured as described above in the […] of the antagonist. […]

## benzoylbenzoic ATP [BzATP]
  EC70 value for agonist activation: 50 µM

Source: patent US7704997B1, “Amino-tetrazole analogues and methods of use” (Abbott Laboratories, priority 2004, dated 2010)
